Data reported in patent publication US6914045B2, “Glycopeptide antibiotics” (Wyeth Holdings Corporation, priority 2001, dated 2005).
In brackets after ≈: the same amount, converted by molar mass. Numbered stars: 1 amine (or outer) side, 2 acyl side, 3 side chain; on linkers, the order of the positions; unused ones are H or OH. Square brackets hold non-standard residues; d marks the D form. Peptide text beside a SMILES is read from it. * marks the point of attachment. ξ: configuration not given here. X1 = N=C1NCC(C(O)C(N[*:1])C(=O)[*:2])N1C1OC(CO)C(O)C(O)C1O; ξEnduracididine(βξ-OH,4'ξ) = N=C1NCC(C(O)C(N)C(=O)O)N1; X2 = OCC1OC(OC2C(CO)OC(*)C(O)C2O)C(O)C(O)C1O

Experiments:
Experiment in all cases: in vitro antibacterial evaluation, MIC by broth dilution
Assay type in all cases: cell-based
Escherichia coli = details: 18 hours at 35° C.
Method in brief: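 Following National Committee for Clinical Laboratory Standards recommendations (M7-A2), susceptibility was measured by dilution in Muller-Hinton II […]. Bacteria were seeded at 5×10^5 CFU/mL against compound concentrations from 64 down to 0.06 μg/mL.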

Staphylococcus sp. = details: broth dilution, 18 hours at 35° C.
Method in brief: (§1)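 Inoculum 5×10^5 CFU/mL; concentrations 64 to 0.06 μg/mL; MIC defined as lowest inhibitory level. Conducted by broth dilution under NCCLS guidelines.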

Streptococcus sp. = details: broth dilution, 18 hours at 35° C.
Method in brief: as §1

Enterococcus sp. = details: broth dilution, 18 hours at 35° C.
Method in brief: as §1

Question: With `N=C1NCC(C(O)C2NC(=O)C(Cc3ccc(OC4OC(CO)C(OC5OC(CO)C(O)C(O)C5O)C(O)C4O)cc3)NC(=O)C(Cc3ccccc3)NC(=O)CNC(=O)C(CO)NC(=O)C(C(O)C3CNC(=N)N3C3OC(CO)C(O)C(O)C3O)NC2=O)N1` (stereo not drawn) [Example 282, Cyclo[glycylphenylalanyl-O-(4-O-hexopyranosylhexopyranosyl)tyrosyl-3-(2-iminomidazolidin-4-yl)seryl-3-(3-hexopyranosyl-2-iminoimidazolidin-4-yl)serylseryl]] (cyclo(GFY(X2)[ξEnduracididine(βξ-OH,4'ξ)][X1]S); configuration not given here) as the molecule, how does the “MIC Escherichia coli (ATCC 25922)” value (Escherichia coli; Escherichia coli (ATCC 25922)) read?
Answer: Its value is greater than 128 µg/mL.

Question: And the “MIC Escherichia coli (GC 4559)” value (Escherichia coli; Escherichia coli (GC 4559))?
Answer: Its value is greater than 128 µg/mL.

Question: What about the “MIC Escherichia coli (GC 4560)” value (Escherichia coli; Escherichia coli (GC 4560)) of the same molecule?
Answer: Its value is 128 µg/mL (≈ 99.9 µM).

Question: What about the “MIC Coagulase Negative Staphylococcus (GC 4547)” value (Staphylococcus sp.) of the same molecule?
Answer: Its value is greater than 128 µg/mL.

Question: What about the “MIC Coagulase Negative Staphylococcus (GC 4548)” value (Staphylococcus sp.) of the same molecule?
Answer: The value was greater than 128 µg/mL.

Question: And the “MIC Coagulase Negative Staphylococcus (GC 4549)” value (Staphylococcus sp.)?
Answer: The value was greater than 128 µg/mL.

Question: And the “MIC Coagulase Negative Staphylococcus (GC 4551)” value (Staphylococcus sp.)?
Answer: Its value is greater than 128 µg/mL.

Question: And the “MIC Staphylococcus aureus (ATCC 29213)” value (Staphylococcus sp.)?
Answer: The value was greater than 128 µg/mL.

Question: What about the “MIC Staphylococcus aureus (GC 1131)” value (Staphylococcus sp.) of the same molecule?
Answer: The value was greater than 128 µg/mL.

Question: What about the “MIC Staphylococcus aureus (GC 3051)” value (Staphylococcus sp.) of the same molecule?
Answer: Its value is greater than 128 µg/mL.

Question: And the “MIC Staphylococcus aureus (GC 3053)” value (Staphylococcus sp.)?
Answer: Its value is greater than 128 µg/mL.

Question: What about the “MIC Staphylococcus aureus (GC 4541)” value (Staphylococcus sp.) of the same molecule?
Answer: Its value is greater than 128 µg/mL.

Question: What about the “MIC Staphylococcus aureus (GC 4542)” value (Staphylococcus sp.) of the same molecule?
Answer: Its value is greater than 128 µg/mL.

Question: And the “MIC Staphylococcus aureus (GC 4544)” value (Staphylococcus sp.)?
Answer: Its value is greater than 128 µg/mL.

Question: And the “MIC Staphylococcus aureus (GC 4545)” value (Staphylococcus sp.)?
Answer: The value was greater than 128 µg/mL.

Question: What about the “MIC Staphylococcus aureus-SMITH (GC 4543)” value (Staphylococcus sp.) of the same molecule?
Answer: Its value is greater than 128 µg/mL.

Question: And the “MIC Staphylococcus haemolyticus (GC 4546)” value (Staphylococcus sp.)?
Answer: The value was greater than 128 µg/mL.

Question: What about the “MIC Staphylococcus aureus (ATCC 29213)” value (Staphylococcus sp.; strain ATCC 29213) of the same molecule?
Answer: The value was greater than 128 µg/mL.

Question: And the “MIC Staphylococcus aureus (GC 1131)” value (Staphylococcus sp.; strain GC 1131)?
Answer: The value was greater than 128 µg/mL.

Question: And the “MIC Staphylococcus aureus (GC 3051)” value (Staphylococcus sp.; strain GC 3051)?
Answer: Its value is greater than 128 µg/mL.

Question: And the “MIC Staphylococcus aureus (GC 3053)” value (Staphylococcus sp.; strain GC 3053)?
Answer: The value was greater than 128 µg/mL.

Question: What about the “MIC Staphylococcus aureus (GC 4541)” value (Staphylococcus sp.; strain GC 4541) of the same molecule?
Answer: The value was greater than 128 µg/mL.

Question: What about the “MIC Staphylococcus aureus (GC 4542)” value (Staphylococcus sp.; strain GC 4542) of the same molecule?
Answer: The value was greater than 128 µg/mL.

Question: What about the “MIC Staphylococcus aureus (GC 4544)” value (Staphylococcus sp.; strain GC 4544) of the same molecule?
Answer: Its value is greater than 128 µg/mL.

Question: What about the “MIC Staphylococcus aureus (GC 4545)” value (Staphylococcus sp.; strain GC 4545) of the same molecule?
Answer: The value was greater than 128 µg/mL.

Question: What about the “MIC Staphylococcus haemolyticus (GC 4546)” value (Staphylococcus sp.; strain GC 4546) of the same molecule?
Answer: The value was greater than 128 µg/mL.

Question: And the “MIC Coagulase Negative Staphylococcus (GC 4547)” value (Staphylococcus sp.; strain GC 4547)?
Answer: Its value is greater than 128 µg/mL.

Question: And the “MIC Coagulase Negative Staphylococcus (GC 4548)” value (Staphylococcus sp.; strain GC 4548)?
Answer: The value was greater than 128 µg/mL.

Question: What about the “MIC Coagulase Negative Staphylococcus (GC 4549)” value (Staphylococcus sp.; strain GC 4549) of the same molecule?
Answer: Its value is greater than 128 µg/mL.

Question: What about the “MIC Coagulase Negative Staphylococcus (GC 4551)” value (Staphylococcus sp.; strain GC 4551) of the same molecule?
Answer: The value was greater than 128 µg/mL.

Question: And the “MIC Staphylococcus aureus-SMITH (GC 4543)” value (Staphylococcus sp.; strain SMITH GC 4543)?
Answer: Its value is greater than 128 µg/mL.

Question: And the “MIC Streptococcus pneumoniae (ATCC 6301)” value (Streptococcus sp.; strain ATCC 6301)?
Answer: Its value is 128 µg/mL (≈ 99.9 µM).

Question: And the “MIC Streptococcus pneumoniae (GC 1894)” value (Streptococcus sp.; strain GC 1894)?
Answer: Its value is 128 µg/mL (≈ 99.9 µM).

Question: And the “MIC Streptococcus pyogenes (GC 4563)” value (Streptococcus sp.; strain GC 4563)?
Answer: The value was greater than 128 µg/mL.

Question: What about the “MIC Streptococcus agalactiae (GC 4564)” value (Streptococcus sp.; strain GC 4564) of the same molecule?
Answer: The value was greater than 128 µg/mL.

Question: What about the “MIC Streptococcus pneumoniae (GC 4565)” value (Streptococcus sp.; strain GC 4565) of the same molecule?
Answer: Its value is greater than 128 µg/mL.

Question: And the “MIC Enterococcus avium (GC 4558)” value (Enterococcus sp.; Enterococcus avium (GC 4558))?
Answer: Its value is 128 µg/mL (≈ 99.9 µM).

Question: What about the “MIC Enterococcus faecalis (ATCC 29212)” value (Enterococcus sp.; Enterococcus faecalis (ATCC 29212)) of the same molecule?
Answer: The value was greater than 128 µg/mL.

Question: And the “MIC Enterococcus faecalis (GC 4553)” value (Enterococcus sp.; Enterococcus faecalis (GC 4553))?
Answer: The value was greater than 128 µg/mL.

Question: And the “MIC Enterococcus faecalis (GC 4554)” value (Enterococcus sp.; Enterococcus faecalis (GC 4554))?
Answer: Its value is greater than 128 µg/mL.

Question: And the “MIC Enterococcus faecalis (GC 6189)” value (Enterococcus sp.; Enterococcus faecalis (GC 6189))?
Answer: The value was greater than 128 µg/mL.

Question: And the “MIC Enterococcus faecium (GC 2243)” value (Enterococcus sp.; Enterococcus faecium (GC 2243))?
Answer: The value was greater than 128 µg/mL.

Question: What about the “MIC Enterococcus faecium (GC 4556)” value (Enterococcus sp.; Enterococcus faecium (GC 4556)) of the same molecule?
Answer: Its value is greater than 128 µg/mL.

Question: And the “MIC Enterococcus faecium (GC 4557)” value (Enterococcus sp.; Enterococcus faecium (GC 4557))?
Answer: Its value is 128 µg/mL (≈ 99.9 µM).

Question: What about the “MIC Enterococcus faecalis (ATCC 29212)” value (Enterococcus sp.; strain ATCC 29212) of the same molecule?
Answer: The value was greater than 128 µg/mL.

Question: What about the “MIC Enterococcus faecalis (GC 2242)” value (Enterococcus sp.; strain GC 2242) of the same molecule?
Answer: Its value is greater than 128 µg/mL.

Question: And the “MIC Enterococcus faecium (GC 2243)” value (Enterococcus sp.; strain GC 2243)?
Answer: The value was greater than 128 µg/mL.

Question: And the “MIC Enterococcus faecalis (GC 2691)” value (Enterococcus sp.; strain GC 2691)?
Answer: The value was greater than 128 µg/mL.

Question: And the “MIC Enterococcus faecalis (GC 3059)” value (Enterococcus sp.; strain GC 3059)?
Answer: The value was greater than 128 µg/mL.

Question: And the “MIC Enterococcus faecalis (GC 4552)” value (Enterococcus sp.; strain GC 4552)?
Answer: Its value is greater than 128 µg/mL.

Question: And the “MIC Enterococcus faecalis (GC 4553)” value (Enterococcus sp.; strain GC 4553)?
Answer: The value was greater than 128 µg/mL.

Question: And the “MIC Enterococcus faecalis (GC 4554)” value (Enterococcus sp.; strain GC 4554)?
Answer: Its value is greater than 128 µg/mL.

Question: And the “MIC Enterococcus faecium (GC 4556)” value (Enterococcus sp.; strain GC 4556)?
Answer: The value was greater than 128 µg/mL.

Question: What about the “MIC Enterococcus faecium (GC 4557)” value (Enterococcus sp.; strain GC 4557) of the same molecule?
Answer: Its value is 128 µg/mL (≈ 99.9 µM).

Question: What about the “MIC Enterococcus avium (GC 4558)” value (Enterococcus sp.; strain GC 4558) of the same molecule?
Answer: The value was 128 µg/mL (≈ 99.9 µM).

Question: And the “MIC Enterococcus faecalis (GC 6189)” value (Enterococcus sp.; strain GC 6189)?
Answer: Its value is greater than 128 µg/mL.
